Assay results: ChEMBL document CHEMBL1155494, “New stilbene dimers against amyloid fibril formation” (Bioorg Med Chem Lett, 2010)

Columns and labels:
[1] = Inhibition of amyloid beta 25-35 fibril formation by using UV-visible measurements and electron microscopy analysis
[2] = Inhibition of amyloid beta 25-35 fibril formation at 10 uM by using UV-visible measurements and electron microscopy analysis

| SMILES | EC50 [1] [µM] | inhibition [2] [%] |
| --- | --- | --- |
| OC[C@H]1O[C@@H](Oc2cc(/C=C/c3ccc(O)cc3)c3c(c2)O[C@H](c2ccc(O)cc2)[C@H]3c2cc(O)cc(O)c2)[C@H](O)[C@@H](O)[C@@H]1O | 0.2 | 93 |
| Oc1ccc(C2Oc3ccc(/C=C/c4cc(O)cc5c4[C@H](c4cc(O)cc(O)c4)[C@@H](c4ccc(O)cc4)O5)cc3[C@@H]2c2cc(O)cc3c2[C@H](c2cc(O)cc(O)c2)C(c2ccc(O)cc2)O3)cc1 (some centres not stated) |  | 32 |
| COc1cc(/C=C/c2cc(O)c3c(c2)O[C@H](c2ccc(O)c(OC)c2)[C@H]3c2cc(O)cc(O)c2)ccc1O |  | 40 |
| Oc1cc(O)cc(/C=C/c2ccc(O)cc2O)c1 |  | 32 |
| Oc1cc(O)cc(-c2cc3ccc(O)cc3o2)c1 |  | 9 |
| Oc1ccc(/C=C/c2cc(O)cc3c2[C@H](c2cc(O)cc(O)c2)[C@@H](c2ccc(O)cc2)O3)cc1 |  | 27 |
| OC[C@@H]1O[C@H](Oc2ccc(/C=C/c3cc(O)c4c(c3)O[C@H](c3ccc(O[C@H]5O[C@@H](CO)[C@H](O)[C@@H](O)[C@@H]5O)cc3)[C@H]4c3cc(O)cc(O)c3)cc2)[C@@H](O)[C@H](O)[C@H]1O [12,GNEMENOSIDE A] | 10 | 46 |
| COc1cc(/C=C/C(=O)CC(=O)/C=C/c2ccc(O)c(OC)c2)ccc1O [CURCUMIN] | 10 | 45 |
| COc1cc(/C=C/c2ccc(O)cc2)cc(OC)c1 |  | 35 |
| Oc1cc(O)cc(/C=C/c2ccc(O)c(O)c2)c1 |  | 25 |
| OC[C@H]1O[C@@H](Oc2ccc(/C=C/c3cc(O)cc(O)c3)cc2)[C@H](O)[C@@H](O)[C@@H]1O |  | 11 |
| OC[C@H]1O[C@@H](Oc2cc(O)cc(/C=C/c3ccc(O)cc3)c2)[C@H](O)[C@@H](O)[C@@H]1O [PICEID] | 6 | 62 |
| Oc1ccc(/C=C/c2cc(O)cc3c2[C@H](c2cc(O)cc(O)c2)[C@@H](c2ccc(O)c(O)c2)O3)cc1 [SCIRPUSIN A] | 0.7 | 80 |
| COc1cc(/C=C/c2cc(O)cc(O)c2)ccc1O[C@@H]1O[C@H](CO)[C@@H](O)[C@H](O)[C@H]1O |  | 28 |
| Oc1ccc([C@H]2Oc3cc(O)c([C@@H]4[C@@H](c5cc6c(cc5O)O[C@H](c5ccc(O)cc5)[C@H]6c5cc(O)cc(O)c5)[C@H](c5ccc(O)cc5)O[C@@H]4c4ccc(O)cc4)cc3[C@@H]2c2cc(O)cc(O)c2)cc1 |  | 17 |
| Oc1ccc(/C=C/c2cc(O)cc(O)c2)cc1 [RESVERATROL] | 6 | 63 |
